{"source": "paper PMC5694482", "about": "(Frontiers in Pharmacology, 2017)", "key": {"H3R [1]": {"molecular_target": "T1, H3R (Homo sapiens, UniProt Q9Y5N1)", "T1 sequence (Q9Y5N1 whole entry, species assumed)": "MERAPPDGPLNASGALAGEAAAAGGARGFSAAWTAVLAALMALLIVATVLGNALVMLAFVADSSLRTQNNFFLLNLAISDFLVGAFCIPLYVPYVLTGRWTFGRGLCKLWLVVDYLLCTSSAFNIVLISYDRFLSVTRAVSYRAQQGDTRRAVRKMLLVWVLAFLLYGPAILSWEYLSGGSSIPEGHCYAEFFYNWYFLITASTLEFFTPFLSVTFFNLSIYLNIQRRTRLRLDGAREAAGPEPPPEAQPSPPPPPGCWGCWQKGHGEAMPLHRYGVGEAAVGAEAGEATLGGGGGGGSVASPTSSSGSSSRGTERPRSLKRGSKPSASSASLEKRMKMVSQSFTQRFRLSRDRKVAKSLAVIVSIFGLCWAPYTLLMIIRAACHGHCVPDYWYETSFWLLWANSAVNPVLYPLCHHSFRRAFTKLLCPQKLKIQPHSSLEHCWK", "conditions": "for Ki: H3R pKi ± SEM; for SI H4R/H3R (Ki): selectivity index, ratio of Ki H4R/H3R"}, "H4R [2]": {"molecular_target": "T2, H4R (Homo sapiens, UniProt Q9H3N8)", "T2 construct": "expressed in transfected cells; host or cells: HEK293T", "T2 sequence (Q9H3N8 whole entry, species assumed)": "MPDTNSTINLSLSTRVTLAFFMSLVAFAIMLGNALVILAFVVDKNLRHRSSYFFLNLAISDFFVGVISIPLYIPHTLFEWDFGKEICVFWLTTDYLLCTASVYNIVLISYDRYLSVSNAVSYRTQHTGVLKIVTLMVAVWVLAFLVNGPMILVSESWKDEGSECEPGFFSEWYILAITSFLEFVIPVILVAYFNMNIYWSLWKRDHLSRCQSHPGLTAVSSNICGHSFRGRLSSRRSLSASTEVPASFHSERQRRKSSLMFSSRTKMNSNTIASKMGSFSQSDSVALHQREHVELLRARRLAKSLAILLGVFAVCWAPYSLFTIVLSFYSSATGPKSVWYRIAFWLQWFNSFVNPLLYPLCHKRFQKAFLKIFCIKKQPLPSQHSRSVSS", "assay": "Competition binding assay with [3H]-histamine in HEK293T cells transiently expressing H4R", "conditions": "for binding to H4R in initial screening (in words): screening format, Supplementary Figure S2"}, "mouse asthma model [3]": {"tested_on": "mouse asthma model", "conditions": "cited from earlier work"}, "mouse asthma model [4]": {"tested_on": "mouse asthma model", "assay": "OVA-induced allergic asthma in mice, cell counts in bronchoalveolar lavage", "assay_type": "in vivo, Male C57Bl/6 mice", "conditions": "3 and 5 mg/kg intraperitoneally 30 min before antigen challenge", "description": "Male C57Bl/6 mice weighing 20–25 g, 6–8 weeks old, from our own animal facilities were housed in a room with a 12 h light–dark cycle with water and food ad libitum. Animal care and research protocols were in accordance with the principles and guidelines adopted by the Brazilian College of Animal Experimentation (COBEA) and this project was approved by the Ethical Committee for Animal Research of the Federal University of São Paulo (CEUA 1666/99).\nMice (n = 5 per group) were sensitized on days 0 and 7 by an intraperitoneal injection of a mixture containing […] of ovalbumin (OVA; Grade V, Sigma–Aldrich, United States) and 1 mg of Al(OH)3 in PBS (a total volume of 0.2 ml). Mice were challenged by exposure to an aerosol of OVA generated by an ultrasonic nebulizer (ICEL US-800, SP, Brazil) delivering particles of […] diameter at approximately 0.75 cc/min for 20 min at days 14 and 21. The concentration of OVA in the nebulizer was 2.5% w/v in PBS. The control group consisted of animals immunized as previously described and challenged two times with PBS solution. Compounds 1d and 1e were administered intraperitoneally in two different dosages (5 and 3 mg/kg) to the test groups 30 min before the antigen challenge. Sensitized and control groups were used to assess the anti-inflammatory activity ([Corrêa et al., 2017]).\nMice were euthanized with intraperitoneal ketamine and xylazine (100 and 10 mg/kg, respectively; Agibrands do Brazil, São Paulo, São Paulo, Brazil), 24 h after exposure to the last aerosol challenge. A tracheal cannula was inserted via a mid cervical incision, and the airways were washed twice with 1 ml of phosphate-buffered saline (PBS, pH 7.4 at 4°C).\nThe bronchoalveolar lavage fluid was centrifuged at 170 × g for 10 min at 4°C, the supernatant was removed, and the cell pellet was re-suspended in 1 ml of PBS. One volume of a solution containing 0.5% crystal violet dissolved in 30% acetic acid was added to nine volumes of the cell suspension. The total number of cells was determined by counting in a hematocytometer. […]"}, "H4R [5]": {"molecular_target": "T2, H4R", "assay": "G protein (Gi1) activation BRET assay, H4R, agonist and antagonist mode", "assay_type": "cell-based", "conditions": "for Gi activation at H4R (agonist mode): BRET Gi1 biosensor, up to 10,000 nM; for block of histamine activity at H4R (antagonist mode): preincubation 30 min at 10,000 nM before histamine"}, "H3R [6]": {"molecular_target": "T1, H3R", "assay": "G protein (Gi1) activation BRET assay, H3R, agonist and antagonist mode", "assay_type": "cell-based", "design": "expressed in transfected cells; host or cells: HEK293T", "conditions": "BRET Gi1 biosensor, up to 10,000 nM"}, "[7]": {"conditions": "displacement of 1.15 nM [3H]-histamine, HEK293T cells, Cheng-Prusoff"}, "[8]": {"conditions": "displacement of 1.15 nM [3H]-histamine, HEK293T cells, Cheng-Prusoff, read-out: H4R pKi ± SEM (converted)"}}, "note": "Values joined by “and” are separate entries in the source; they are usually repeats but may differ in a detail not shown here. Identical values can stand only once. “Also recorded” adds a separate entry of the source. Like-named read-outs stand apart in the source and are kept apart here.", "data": [{"smiles": "c1ccc2c(c1)CC(CN1CCNCC1)O2", "note": "(centres unmarked) [1a, 1-[(2,3-Dihydro-1-benzofuran-2-yl)methyl]piperazine]", "values": [{"measurement": "affinity for H3R (in words)", "setting": "H3R [1]", "value": "did not show appreciable affinity"}, {"measurement": "Ki", "setting": "H3R [1]; [7]", "value": "> 10000", "unit": "nM"}, {"measurement": "Ki", "setting": "H4R [2]; [8]", "value": "> 10000", "unit": "nM"}]}, {"smiles": "CN1CCN(CC2Cc3ccccc3O2)CC1", "note": "(centres unmarked) [1b, 1-[(2,3-dihydro-1-benzofuran-2-yl)methyl]-4-methylpiperazine]", "values": [{"measurement": "Ki", "setting": "H3R [1]; [7]", "value": 2690, "unit": "nM"}, {"measurement": "Ki", "setting": "H4R [2]; [8]", "value": "> 10000", "unit": "nM"}]}, {"smiles": "C=CCN1CCN(CC2Cc3ccccc3O2)CC1", "note": "(centres unmarked) [1c, 1-allyl-4-[(2,3-dihydro-1-benzofuran-2-yl)methyl]piperazine]", "values": [{"measurement": "H3R pKi ± SEM", "setting": "H3R [1]; [7]", "value": "6.40 ± 0.21"}, {"measurement": "SI H4R/H3R (Ki)", "setting": "H3R [1]", "value": ">25"}, {"measurement": "Ki", "setting": "H4R [2]; [8]", "value": "> 10000", "unit": "nM"}]}, {"smiles": "c1ccc(N2CCN(CC3Cc4ccccc4O3)CC2)cc1", "note": "(centres unmarked) [1d, 1-[(2,3-dihydro-1-benzofuran-2-yl)methyl]-4-phenyl-piperazine]", "values": [{"measurement": "anti-inflammatory activity in mouse asthma model", "setting": "mouse asthma model [3]; earlier report, ref Corrêa et al., 2017", "value": "anti-inflammatory activity only at 5 mg/kg dose"}, {"measurement": "affinity for H3R (in words)", "setting": "H3R [1]", "value": "did not show appreciable affinity"}, {"measurement": "Ki", "setting": "H3R [1]; [7]", "value": "> 10000", "unit": "nM"}, {"measurement": "effect on total inflammatory cell and eosinophil counts in bronchoalveolar lavage", "setting": "mouse asthma model [4]", "value": "dose-dependent effect"}, {"measurement": "Ki", "setting": "H4R [2]; [8]", "value": "> 10000", "unit": "nM"}]}, {"smiles": "CN1CCN(CC2Cc3cc(Cl)ccc3O2)CC1", "note": "(centres unmarked) [1e, 1-[(5-chloro-2,3-dihydro-1-benzofuran-2-yl)methyl]-4-methylpiperazine]", "values": [{"measurement": "Gi activation at H4R (agonist mode)", "setting": "H4R [5]", "value": "did not trigger Gi activation"}, {"measurement": "block of histamine activity at H4R (antagonist mode)", "setting": "H4R [5]", "value": "fully blocked histamine agonistic effect"}, {"measurement": "Ki", "setting": "H3R [1]; [7]", "value": "~851 nM and 851 nM"}, {"measurement": "SI H4R/H3R (Ki)", "setting": "H3R [1]", "value": 1.1}, {"measurement": "effect on total inflammatory cell and eosinophil counts in bronchoalveolar lavage", "setting": "mouse asthma model [4]", "value": "low counts in both doses; also recorded: highly effective at low doses"}, {"measurement": "effect on total inflammatory cell and eosinophil counts in bronchoalveolar lavage", "setting": "mouse asthma model [4]; listed as LINS01007", "value": "better anti-inflammatory activity"}, {"measurement": "increase in affinity for H4R by insertion of the chlorine atom", "setting": "H4R [2]; 1e against the non-substituted molecule", "value": "more than 10 fold"}, {"measurement": "Ki", "setting": "H4R [2]; [8]", "value": 871, "unit": "nM"}, {"measurement": "binding to H4R in initial screening (in words)", "setting": "H4R [2]", "value": "considerable binding to H4R"}]}, {"smiles": "Cc1ccc2c(c1)CC(CN1CCN(C)CC1)O2", "note": "(centres unmarked) [1f, 1-methyl-4-[(5-methyl-2,3-dihydro-1-benzofuran-2-yl)methyl]piperazine]", "values": [{"measurement": "Gi activation at H4R (agonist mode)", "setting": "H4R [5]", "value": "weak agonistic effect in high concentrations; also recorded: moderate agonistic effect"}, {"measurement": "block of histamine activity at H4R (antagonist mode)", "setting": "H4R [5]", "value": "only partially blocked histamine activity; also recorded: only partially reduced histamine effect"}, {"measurement": "Ki", "setting": "H3R [1]; [7]", "value": 708, "unit": "nM"}, {"measurement": "SI H4R/H3R (Ki)", "setting": "H3R [1]", "value": 14}, {"measurement": "Ki", "setting": "H4R [2]; read-out: H4R Ki / binding affinity", "value": "~10000", "unit": "nM"}, {"measurement": "binding to H4R in initial screening (in words)", "setting": "H4R [2]", "value": "considerable binding to H4R"}]}, {"smiles": "COc1ccc2c(c1)CC(CN1CCN(C)CC1)O2", "note": "(centres unmarked) [1g, 1-methyl-4-[(5-methoxy-2,3-dihydro-1-benzofuran-2-yl)methyl]piperazine]", "values": [{"measurement": "Ki", "setting": "H3R [1]; [7]", "value": 871, "unit": "nM"}, {"measurement": "SI H4R/H3R (Ki)", "setting": "H3R [1]", "value": ">11"}, {"measurement": "Ki", "setting": "H4R [2]; [8]", "value": "> 10000", "unit": "nM"}]}, {"smiles": "CN1CCN(CC2Cc3cc(C(C)(C)C)ccc3O2)CC1", "note": "(centres unmarked) [1h, 1-methyl-4-[(5-tert-butyl-2,3-dihydro-1-benzofuran-2-yl)methyl]piperazine]", "values": [{"measurement": "Ki", "setting": "H3R [1]; [7]", "value": "~851 nM and 851 nM"}, {"measurement": "SI H4R/H3R (Ki)", "setting": "H3R [1]", "value": "> 11"}, {"measurement": "Ki", "setting": "H4R [2]; [8]", "value": "> 10000", "unit": "nM"}]}, {"smiles": "Clc1ccc2c(c1)CC(CN1CCN(c3ccccc3)CC1)O2", "note": "(centres unmarked) [1i, 1-[(5-chloro-2,3-dihydro-1-benzofuran-2-yl)methyl]-4-phenylpiperazine]", "values": [{"measurement": "affinity for H3R (in words)", "setting": "H3R [1]", "value": "did not show appreciable affinity"}, {"measurement": "Ki", "setting": "H3R [1]; [7]", "value": "> 10000", "unit": "nM"}, {"measurement": "Ki", "setting": "H4R [2]; [8]", "value": "> 10000", "unit": "nM"}]}, {"smiles": "NC(=NCc1ccc(Cl)cc1)SCCCc1cnc[nH]1", "note": "[Clobenpropit]", "values": [{"measurement": "Gi activation at H3R (agonist mode)", "setting": "H3R [6]", "value": "unable to trigger Gi activation"}]}, {"smiles": "NCCc1c[nH]cn1", "note": "[Histamine, reference compound]", "values": [{"measurement": "Gi activation at H4R (agonist mode)", "setting": "H4R [5]", "value": "poor stimulant of Gi"}, {"measurement": "Gi activation at H3R (agonist mode)", "setting": "H3R [6]", "value": "strong activation signal"}]}, {"smiles": "CN1CCN(C(=O)c2cc3cc(Cl)ccc3[nH]2)CC1", "note": "[JNJ-7777120, reference compound]", "values": [{"measurement": "effect on inflammatory infiltrations in experimental murine asthma model", "setting": "mouse asthma model [3]; ref Neumann et al., 2013", "value": "capable of reducing the inflammatory infiltrations"}]}]}
